Where two headings read alike, the source gives them in different places. Marks after values point to notes of the source that are not given here.
Test system: human osteosarcoma DM113
Type: in vivo
Procedure: The resultant solution contains 10 mg/mL of cabazitaxel. Stock solution of cabazitaxel was then diluted in 0.9% sodium chloride.
This efficacy may be quantified, for example, as changes in tumor volume for each treated (T) and control (C) group, which are calculated for each animal and each day by subtracting the tumor volume on the day of first treatment (staging day) from the tumor volume on the specified observation day. This allows calculating the tumor growth inhibition: ΔT/ΔC=(median delta T/median delta C)×100. Individual tumor volume changes from baseline are thereafter analyzed by a non-parametric two-way ANOVA-TYPE (with factors: group and repeated days) followed by a post-hoc contrasts analysis, with Bonferroni-Holm adjustment for multiplicity, comparing all treated groups to the control group. […] A probability less than 5% (p<0.05) was considered as significant.
Based on the National Cancer Institute (NCl) standards, a ΔT/ΔC≦40% is the minimal level required to declare activity.
This efficacy may also be quantified by the number of tumor regressions observed after therapy. Individual mice reporting a tumor volume ≦50% of the Day 0 measurement for two consecutive measurements over a seven day period were considered partial responders (PR). Individual mice lacking palpable tumors (<4×4 mm^2 for two consecutive measurements over a seven day period) were classified as complete responders (CR); a CR that persisted until study completion was considered a tumor-free survivor (TFS).
Efficacy could also be determined at study completion, using tumor growth delay (T-C) in days, which is calculated using the median time to endpoint (MTTE) value for each treatment (T) group versus control (C). A Log Rank multiple comparison test with Bonferroni-Holm adjustment for multiplicity was applied on individual TTE to compare the treated groups to the control group.
The animals subjected to the experiment are subcutaneously grafted unilaterally with approximately 30 mg of a tumor fragment from low passage pediatric patient-derived tumor xenografts. The animals are implanted with a human patient-derived pediatric tumor xenografted in immuno-compromised mice (Harlan; nu/nu). Several days post tumor implantation, mice are randomized according to their tumor burden to the different groups of treatments and controls. The agents are dosed intravenously at 5.8, 9.3, 15 or 24.2 mg/kg every 4 days for a total of 3 doses (q4d×3) to mice bearing a tumor burden at start of therapy (day 0) ranged from 125 to 250 mm^3.
Beginning Day 0, animals were observed daily and weighed twice weekly using a digital scale; data including individual and mean gram weights (Mean We±SD), mean percent weight change versus Day 0 were recorded for each group. Animal deaths were recorded daily and designated as drug-related (D), technical (T), tumor related (B), or unknown (U) based on weight loss and gross observation; single agent or combination groups reporting a mean >20% for a period of 7 days and/or >10% mortality were considered above the maximum tolerated dose (MTD) for that treatment on the evaluated regimen.
The selected tumor model, DM113, was a low passage patient-derived tumor xenograft derived from an osteosarcoma taken from the lung of a patient.
The following end points were used: • Toxicity was declared at dosages inducing ≧20% body weight loss or ≧10% drug death; • Antitumor efficacy was determined by calculating the ΔT/ΔC value in percent on day 28 post treatment initiation, according to the above mentioned formula; • Individual tumor volume changes from baseline were analyzed by a non-parametric two-way ANOVA-TYPE (with factors: group and repeated day from 3 to 28) followed by a post-hoc contrasts analysis, with Bonferroni-Holm adjustment for multiplicity, comparing all treated groups to the control group on day 28. […] The volume endpoint for T-C calculations was chosen to be 1600 mm^3.

[1] = 5.8 mg/kg i.v./q4dx3, volume endpoint 1600 mm^3
[2] = 9.3 mg/kg i.v./q4dx3, volume endpoint 1600 mm^3
[3] = 15 mg/kg i.v./q4dx3, volume endpoint 1600 mm^3
[4] = 24.2 mg/kg i.v./q4dx3, volume endpoint 1600 mm^3

CC(=O)O[C@@]12CO[C@@H]1C[C@H](O)[C@@]1(C)C(=O)[C@H](O)C3=C(C)[C@@H](OC(=O)[C@H](O)[C@@H](NC(=O)OC(C)(C)C)c4ccccc4)C[C@@](O)([C@@H](OC(=O)c4ccccc4)[C@H]21)C3(C)C [Docetaxel, docetaxel]
#CR (5.8 mg/kg i.v./q4dx3): 0/0/0 | #PR (5.8 mg/kg i.v./q4dx3): 0/0/0 | #TFS (5.8 mg/kg i.v./q4dx3): 0/0/0 | Drug Deaths Total (5.8 mg/kg i.v./q4dx3): 0 | Weight Nadir % (5.8 mg/kg i.v./q4dx3): −2% | Weight Nadir Day (5.8 mg/kg i.v./q4dx3): 3 | Tumor Volume Data (Day 28) Median (5.8 mg/kg i.v./q4dx3, day 28): 598 mm^3 | ΔT/ΔC % (5.8 mg/kg i.v./q4dx3, day 28): 42.9% | MTTE [1]: 41 days | T-C [1]: 9 days | ΔT/ΔC (5.8 mg/kg q4d×3 IV, day 28): 42.9% | tumor growth delay (T-C) (5.8 mg/kg q4d×3 IV, volume endpoint 1600 mm^3): 9 days | tumor volume changes from baseline, Median +/− MAD (5.8 mg/kg, DAY 3): 22.5 +/− 22.5 | tumor volume changes from baseline, Median +/− MAD (5.8 mg/kg, DAY 8): 95 +/− 22.5 | tumor volume changes from baseline, Median +/− MAD (5.8 mg/kg, DAY 11): 117.5 +/− 45 | tumor volume changes from baseline, Median +/− MAD (5.8 mg/kg, DAY 14): 189 +/− 60.5 | tumor volume changes from baseline, Median +/− MAD (5.8 mg/kg, DAY 17): 242.5 +/− 110 | tumor volume changes from baseline, Median +/− MAD (5.8 mg/kg, DAY 21): 278.5 +/− 142 | tumor volume changes from baseline, Median +/− MAD (5.8 mg/kg, DAY 24): 435 +/− 159 | tumor volume changes from baseline, Median +/− MAD (5.8 mg/kg, DAY 28): 487 +/− 231.5 | tumor volume changes from baseline, Median +/− MAD (5.8 mg/kg, DAY 31): 598 +/− 204 | tumor volume changes from baseline, Median +/− MAD (5.8 mg/kg, DAY 35): 813 +/− 367 | tumor volume changes from baseline, Median +/− MAD (5.8 mg/kg, DAY 38): 960 +/− 388 | tumor volume changes from baseline, Median +/− MAD (5.8 mg/kg, DAY 42): 1032 +/− 326 | tumor volume changes from baseline, Median +/− MAD (5.8 mg/kg, DAY 46): 1340 +/− 384 | #CR (9.3 mg/kg i.v./q4dx3): 0 | #PR (9.3 mg/kg i.v./q4dx3): 1 | #TFS (9.3 mg/kg i.v./q4dx3): 0 | Drug Deaths Total (9.3 mg/kg i.v./q4dx3): 0* | Weight Nadir % (9.3 mg/kg i.v./q4dx3): −3% | Weight Nadir Day (9.3 mg/kg i.v./q4dx3): 17 | Tumor Volume Data (Day 28) Median (9.3 mg/kg i.v./q4dx3, day 28): 442 mm^3 | ΔT/ΔC % (9.3 mg/kg i.v./q4dx3, day 28): 27.4% | MTTE [2]: 49 days | T-C [2]: 17 days | tumor volume changes from baseline, Median +/− MAD (9.3 mg/kg, DAY 3): 56.5 +/− 26.5 | tumor volume changes from baseline, Median +/− MAD (9.3 mg/kg, DAY 8): 85.5 +/− 27 | tumor volume changes from baseline, Median +/− MAD (9.3 mg/kg, DAY 11): 73 +/− 42.5 | tumor volume changes from baseline, Median +/− MAD (9.3 mg/kg, DAY 14): 85.5 +/− 34.5 | tumor volume changes from baseline, Median +/− MAD (9.3 mg/kg, DAY 17): 117.5 +/− 51.5 | tumor volume changes from baseline, Median +/− MAD (9.3 mg/kg, DAY 21): 140.5 +/− 52 | tumor volume changes from baseline, Median +/− MAD (9.3 mg/kg, DAY 24): 239 +/− 94.5 | tumor volume changes from baseline, Median +/− MAD (9.3 mg/kg, DAY 28): 311 +/− 75.5 | tumor volume changes from baseline, Median +/− MAD (9.3 mg/kg, DAY 31): 390 +/− 90.5 | tumor volume changes from baseline, Median +/− MAD (9.3 mg/kg, DAY 35): 545 +/− 52 | tumor volume changes from baseline, Median +/− MAD (9.3 mg/kg, DAY 38): 677 +/− 118 | tumor volume changes from baseline, Median +/− MAD (9.3 mg/kg, DAY 42): 827.5 +/− 293.5 | tumor volume changes from baseline, Median +/− MAD (9.3 mg/kg, DAY 46): 1187 +/− 347.5 | #CR (15 mg/kg i.v./q4dx3): 0/0/0 | #PR (15 mg/kg i.v./q4dx3): 0/0/0 | #TFS (15 mg/kg i.v./q4dx3): 0/0/0 | Drug Deaths Total (15 mg/kg i.v./q4dx3): 0 | Weight Nadir % (15 mg/kg i.v./q4dx3): −8% | Weight Nadir Day (15 mg/kg i.v./q4dx3): 17 | Tumor Volume Data (Day 28) Median (15 mg/kg i.v./q4dx3, day 28): 178 mm^3 | ΔT/ΔC % (15 mg/kg i.v./q4dx3, day 28): 3.2% | MTTE [3]: >59 days | T-C [3]: >28 days | numbers of PR (15 mg/kg q4d×3 IV): 0/10 | tumor volume changes from baseline, Median +/− MAD (15 mg/kg, DAY 3): 26 +/− 26 | tumor volume changes from baseline, Median +/− MAD (15 mg/kg, DAY 8): 26 +/− 26 | tumor volume changes from baseline, Median +/− MAD (15 mg/kg, DAY 11): 13 +/− 16.5 | tumor volume changes from baseline, Median +/− MAD (15 mg/kg, DAY 14): 13 +/− 16.5 | tumor volume changes from baseline, Median +/− MAD (15 mg/kg, DAY 17): 13 +/− 16.5 | tumor volume changes from baseline, Median +/− MAD (15 mg/kg, DAY 21): 0 +/− 19 | tumor volume changes from baseline, Median +/− MAD (15 mg/kg, DAY 24): 22.5 +/− 23.5 | tumor volume changes from baseline, Median +/− MAD (15 mg/kg, DAY 28): 36.5 +/− 35.5 | tumor volume changes from baseline, Median +/− MAD (15 mg/kg, DAY 31): 42.5 +/− 29.5 | tumor volume changes from baseline, Median +/− MAD (15 mg/kg, DAY 35): 61 +/− 61 | tumor volume changes from baseline, Median +/− MAD (15 mg/kg, DAY 38): 61 +/− 81 | tumor volume changes from baseline, Median +/− MAD (15 mg/kg, DAY 42): 107 +/− 90 | tumor volume changes from baseline, Median +/− MAD (15 mg/kg, DAY 46): 155 +/− 153 | #CR (24.2 mg/kg i.v./q4dx3): 0 | #PR (24.2 mg/kg i.v./q4dx3): 1 | #TFS (24.2 mg/kg i.v./q4dx3): 0 | Drug Deaths Total (24.2 mg/kg i.v./q4dx3): 0 | Weight Nadir % (24.2 mg/kg i.v./q4dx3): −13% | Weight Nadir Day (24.2 mg/kg i.v./q4dx3): 17 | ΔT/ΔC % (24.2 mg/kg i.v./q4dx3, day 28): 0% | MTTE [4]: >59 days | T-C [4]: >28 days | numbers of PR (24.2 mg/kg q4d×3 IV): 1/10 | tumor volume changes from baseline, Median +/− MAD (24.2 mg/kg, DAY 3): 29.5 +/− 13.5 | tumor volume changes from baseline, Median +/− MAD (24.2 mg/kg, DAY 8): 22.5 +/− 22.5 | tumor volume changes from baseline, Median +/− MAD (24.2 mg/kg, DAY 11): 0 +/− 22 | tumor volume changes from baseline, Median +/− MAD (24.2 mg/kg, DAY 14): −9.5 +/− 35 | tumor volume changes from baseline, Median +/− MAD (24.2 mg/kg, DAY 17): −9.5 +/− 26 | tumor volume changes from baseline, Median +/− MAD (24.2 mg/kg, DAY 21): −9.5 +/− 26 | tumor volume changes from baseline, Median +/− MAD (24.2 mg/kg, DAY 24): 0 +/− 0 | tumor volume changes from baseline, Median +/− MAD (24.2 mg/kg, DAY 28): 0 +/− 9.5 | tumor volume changes from baseline, Median +/− MAD (24.2 mg/kg, DAY 31): 0 +/− 9.5 | tumor volume changes from baseline, Median +/− MAD (24.2 mg/kg, DAY 35): 0 +/− 9.5 | tumor volume changes from baseline, Median +/− MAD (24.2 mg/kg, DAY 38): 0 +/− 9.5 | tumor volume changes from baseline, Median +/− MAD (24.2 mg/kg, DAY 42): 0 +/− 9.5 | tumor volume changes from baseline, Median +/− MAD (24.2 mg/kg, DAY 46): 50.5 +/− 47.5

— US20140350273A1, “PEDIATRIC USES OF CABAZITAXEL” (AVENTIS PHARMA S.A., priority 2012, published 2014)
